The values that follow come from paper PMC9964117, “Inhibitors against Two PDZ Domains of MDA-9 Suppressed Migration of Breast Cancer Cells” (International Journal of Molecular Sciences, 2023).

In one series the test system is brain-tumor-bearing mice. Also noted: method as in PMID 28011764. The following applies: cited from earlier work.
In series [1] the target is T1, MDA-9 PDZ1 domain (Homo sapiens, UniProt O00560).
T1 construct: the N-terminal (1–109aa), PDZ1 (110–193aa), PDZ2 (194–274aa); made in house
T1 sequence (O00560 110-193): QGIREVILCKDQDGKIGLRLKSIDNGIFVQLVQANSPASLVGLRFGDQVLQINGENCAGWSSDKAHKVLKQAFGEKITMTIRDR
Also noted: method as in PMID 28011764. The following applies: read-out: Affinity for MDA-9 PDZ1 domain; cited from earlier work.

The subject of series [2] is prostate cancer or neuroblastoma. Also noted: method as in PMID 31406249, PMID 31345950. The following applies: cited from earlier work.
A further series concerns glioma cells. On the set-up: method as in PMID 28011764. The following applies: cited from earlier work.
For series [3], the target named is T2, MDA-9 PDZ2 domain (Homo sapiens, UniProt O00560).
T2 construct: PDZ1 (110–193aa), PDZ2 (194–274aa), and the C-terminal (275–298aa); made in house
T2 sequence (O00560 194-274): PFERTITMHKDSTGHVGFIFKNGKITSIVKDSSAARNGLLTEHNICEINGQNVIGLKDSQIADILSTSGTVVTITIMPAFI
The following applies: cited from earlier work.

For series [4], the system named is MDA-MB-231 cells. As to the kind of experiment: CCK8 cell viability assay. The series is classed as cell-based. The settings on record: 48 h treatment. Here is the method: The MDA-MB-231 cells were obtained by a gift. CCK8 assay was used to assess the effects of PI1A or PI2A on the viability of MDA-MB-231 cells. Cells were placed in 96-well plates and treated with different concentrations of DMSO, PI1A, or PI2A for 48 h. Then, 10 μL of CCK8 solution was added to the wells. The 96-well plates were incubated in a CO2 incubator at 37 °C for another 1 h. OD values were measured at 450 nm using a CLARIOstar (BMG LABTECH) plate reader.
(Formazan colour is commonly taken as a measure of viable cells.)

For series [5], the target named is T1, MDA-9 PDZ1 domain. As to the kind of experiment: Competitive fluorescence polarization with FITC-peptide. The following applies: 80 μM PDZ1, 500 nM FITC-peptide; read-out: Binding affinity to PDZ1 from competitive FP. The method, then:
(§1) For competitive FP experiments with the FITC-peptide, the PDZ1 domain concentration was set at 80 μM and the PDZ2 domain concentration at 250 μM. After that, each aliquot of the 200 μL sample contained 500 nM of the FITC-peptide, 80 μM of the PDZ1 or 250 μM of the PDZ2 domain, as well as different concentrations of PI1A or PI2A. A concentration range of 0–200 μM was administered for PI1A while a concentration range of 0–600 μM was administered for PI2A. Samples were repeated 3 times for each experimental group. The dissociation constants for the interactions between ligands and proteins were derived from the complete competitive FP equation proposed by Gerhard Wagner et al. (Biochemistry 2004). […]
Background: Fluorescence polarisation rises when a labelled molecule tumbles more slowly, as on binding a larger partner.

Series [6] addresses T3, MTSL-labeled C118/C166S mutant of MDA-9 PDZ1 domain (Homo sapiens, UniProt O00560, C166S).
T3 construct: the N-terminal (1–109aa), PDZ1 (110–193aa), PDZ2 (194–274aa); made in house
T3 sequence (O00560 110-193 C166S): T1 sequence (O00560 110-193) with C57S
In words: NMR CSP titration against MTSL-labeled mutant. The settings on record: dose-dependent CSP, read-out: Binding affinity to MTSL-labeled C118/C166S mutant of PDZ1. Here is the method: (§2) The ^15N-labelled PDZ1 and PDZ2 domains of MDA-9 were concentrated in the HEPES buffer (20 mM HEPES, 100 mM NaCl, 1 mM EDTA, 1 mM DTT, pH 7.0) to 0.05 mmol/L. The screening fragment compounds were then titrated to these ^15N-labeled MDA-9 PDZ1 or PDZ2 domain, respectively. Each HSQC profile was collected (at molar ratios of 0.0, 2.0, 4.0, 8.0, 16.0, and 32.0 at 25 °C) using an Agilent 700 MHz spectrometer. NMR spectra were analyzed using Sparky. The chemical shift changes (Δδ), relative to the free form of the PDZ1 or PDZ2 domain, were calculated as follows:(1) Δδ=(∆δH^1)^2+(0.2ΔδN^15)^2 where ∆δH^1 and ΔδN^15 denote the chemical shift changes of ^1H and ^15N, respectively.
(§3) According to this equation, the binding constants can be best fitted with a binding mode of 1:1: Δδobs=Δδmax([P]t+[L]t+Kd)−([P]t+[L]t+Kd)^2−4[P]t[L]t/2[P]t where [P]t and [L]t represent the concentrations of the protein and ligand, respectively. Δδobs represents the observed chemical shift changes, relative to the free-state protein.
(§4) The ^15N-labeled PDZ1 C118/C166S mutant and the PDZ2 C239S/D256C mutant were expressed by the method described above. After the dilution of the protein solution to 0.5 mg/mL with a 1-fold excess of Tris(2-carboxyethyl) phosphine (TCEP), the solution was incubated for 2 h at room temperature. […] WATERGATE spectra with T2 delays of 0.04 and 0.8 s were recorded. […]

Series [7] concerns the target T2, MDA-9 PDZ2 domain. As to the kind of experiment: NMR chemical shift perturbation titration (1H-15N HSQC). The format is binding. Here is the method:
(§5) NMR fragment-based screening was performed at 25 °C using an Agilent 700 MHZ spectrometer equipped with a 96-well autosampler (Agilent Technologies, Santa Clara, CA, USA). ^1H-^15N HSQC spectra were acquired from the ^15N-labeled MDA-9 PDZ1 and PDZ2 domains (0.05 mM). A fragment library of 890 compounds (Chembridge, SanDiego, CA, USA) and an approved drug library of 540 compounds (TargetMol, Boston, MA, USA) were pooled into cocktails, respectively, and each cocktail contained 10 compounds at 0.2 mM [39, 40]. The ^1H-^15N HSQC spectra were measured on an Agilent 700 MHz spectrometer at ligand/protein molar ratios ranging from 0.0 to 4.0.
as §2, with “^15N, respectively. […]” for “^15N, respectively.”

In series [8] the target is T1, MDA-9 PDZ1 domain. Described as above. The settings on record: 25 °C, pH 7.0, read-out: Binding affinity (Kd) to MDA-9 PDZ1 domain from dose-dependent CSPs. Here is the method:
as §5
as §2, with “^15N, respectively. […]” for “^15N, respectively.”

In series [9] the test system is MDA-MB-231 cells. As to the kind of experiment: Wound-healing assay. The format is cell-based. The following applies: 100 μM each compound, 0 and 24 h, relative to DMSO. Here is the method: MDA-MB-231 cells were spread in 6-well plate culture dishes, where sh-MDA-9 cells were used as a positive control. DMSO (control), PI1A 100 μM, PI2A 100 μM, and both PI1A and PI2A 100 μM were added to the MDA-MB-231 cells, respectively. On newly grown monolayer cells, […] of the tip was used to line the central area of cell growth. Next, excess cells were washed away with PBS buffer. The cells were then cultured for the experimentally-determined period of time (0 h or 24 h). Lastly, the cell culture plates were removed separately and the peripheral cells were observed under a microscope to determine whether they had migrated to the scratched area.

For series [10], the target named is T4, H208A mutant of MDA-9 PDZ2 domain (Homo sapiens, UniProt O00560, H208A).
T4 construct: PDZ1 (110–193aa), PDZ2 (194–274aa), and the C-terminal (275–298aa); made in house
T4 sequence (O00560 194-274 H208A): T2 sequence (O00560 194-274) with H15A
As to the kind of experiment: NMR CSP titration against mutant. The series is classed as binding. The method, then: as §2, §3

The target of series [11] is T5, V209I mutant of MDA-9 PDZ2 domain (Homo sapiens, UniProt O00560, V209I).
T5 construct: PDZ1 (110–193aa), PDZ2 (194–274aa), and the C-terminal (275–298aa); made in house
T5 sequence (O00560 194-274 V209I): T2 sequence (O00560 194-274) with V16I
In words: NMR CSP titration against mutant. The series is classed as binding. The method, then: as §2, §3

Series [12] addresses T6, V209A mutant of MDA-9 PDZ2 domain (Homo sapiens, UniProt O00560, V209A).
T6 construct: PDZ1 (110–193aa), PDZ2 (194–274aa), and the C-terminal (275–298aa); made in house
T6 sequence (O00560 194-274 V209A): T2 sequence (O00560 194-274) with V16A
In words: NMR CSP titration against mutant. The series is classed as binding. The settings on record: relative to wild type. Here is the method: as §2, §3

Series [13] concerns the target T7, A255V mutant of MDA-9 PDZ2 domain (Homo sapiens, UniProt O00560, A255V).
T7 construct: PDZ1 (110–193aa), PDZ2 (194–274aa), and the C-terminal (275–298aa); made in house
T7 sequence (O00560 194-274 A255V): T2 sequence (O00560 194-274) with A62V
As to the kind of experiment: NMR CSP titration against mutant. The format is binding. Here is the method: as §2, §3

Series [14] addresses T8, G210A mutant of MDA-9 PDZ2 domain (Homo sapiens, UniProt O00560, G210A).
T8 construct: PDZ1 (110–193aa), PDZ2 (194–274aa), and the C-terminal (275–298aa); made in house
T8 sequence (O00560 194-274 G210A): T2 sequence (O00560 194-274) with G17A
In words: NMR CSP titration against mutant. The format is binding. The following applies: relative to wild type. The method, then: as §2, §3

The target in series [15] is T2, MDA-9 PDZ2 domain. As to the kind of experiment: Competitive fluorescence polarization with FITC-peptide. The settings on record: 250 μM PDZ2, 500 nM FITC-peptide; read-out: Binding affinity to PDZ2 from competitive FP. Here is the method: as §1
The target of series [16] is T9, MTSL-labeled C239S/D256C mutant of MDA-9 PDZ2 domain (Homo sapiens, UniProt O00560, C239S/D256C).
T9 construct: PDZ1 (110–193aa), PDZ2 (194–274aa), and the C-terminal (275–298aa); made in house
T9 sequence (O00560 194-274 C239S/D256C): T2 sequence (O00560 194-274) with C46S, D63C
As to the kind of experiment: NMR CSP titration against MTSL-labeled mutant. The series is classed as binding. The following applies: dose-dependent CSP. Here is the method:
as §2, §3, §4

The structures appear in SMILES notation. Residue numbers refer to the chain shown, from its start. Like-named read-outs stand apart in the source and are kept apart here.

As to `Cc1cc(NC(=O)c2nc3nc4c(c(=O)n3[nH]2)CCC4)c(C)cc1NC(=O)CCc1nnc(-c2ccccc2)o1` [PDZ1i], the “Survival rate in brain-tumor-bearing mice” value in the series on brain-tumor-bearing mice is recorded as “improved survival rate”. On MDA-9 PDZ1 domain [1], the Kd was 21 µM. Moreover, the “In vivo activity against prostate cancer or neuroblastoma” value in series [2] is given as “exhibited in vivo activity”. Moreover, the “Invasion of glioma cells” value in the series on glioma cells is listed as “inhibited the invasion”. In addition, on MDA-9 PDZ2 domain [3], the “Binding to MDA-9 PDZ2 domain (in words)” value was “did not bind significantly”.

For `Cc1cc(Nc2ccccc2C(=O)O)ccc1Cl` [PI1A], in the series on MDA-MB-231 cells [4], the “Toxicity / viability of MDA-MB-231 cells (CCK8)” value is given as “not toxic”. For the same molecule, the values for the Kd (at MDA-9 PDZ1 domain [5]; in [6]; on MDA-9 PDZ1 domain [8]) were 170 µM, 250 µM and 110 µM, respectively. Moreover, the “Binding to MDA-9 PDZ2 domain (in words)” value on MDA-9 PDZ2 domain [7] is reported as “did not bind”. In addition, in the series on MDA-MB-231 cells [9], the “Migration of MDA-MB-231 cells (wound closure)” value is “suppressed the migration”.

With `O=C(O)c1cc(-c2ccc(F)cc2)n[nH]1` [PI2A], the “Binding to H208A mutant of PDZ2 (in words)” value in series [10] was “incapable of binding”. The Kd is more than 5000 µM in series [11]; more than 5000 µM in series [13]; 510 µM on MDA-9 PDZ2 domain [15]; 500 µM on MDA-9 PDZ2 domain [7] (25 °C, pH 7.0, read-out: Binding affinity (Kd) to MDA-9 PDZ2 domain by NMR titration); more than 1000 µM on MDA-9 PDZ1 domain [8]. Also, in series [12], the “Binding affinity to V209A mutant of PDZ2 (in words)” value is listed as “reduced binding affinities”. The “Binding affinity to G210A mutant of PDZ2 (in words)” value in series [14] is given as “reduced binding affinities”. In the series with MDA-MB-231 cells [4], the “Toxicity / viability of MDA-MB-231 cells (CCK8)” value was “not toxic”. For the same molecule, the “Effect of MTSL labeling of C239S/D256C PDZ2 mutant on inhibitor binding affinity (in words)” value in series [16] was “did not disrupt”. In addition, in the series on MDA-MB-231 cells [9], the “Migration of MDA-MB-231 cells (wound closure)” value is listed as “suppressed the migration”.
